In patent publication US20060063839A1, “Inhibitors of decrease in body temperature” (AJINOMOTO CO., INC., priority 2003, published 2006):

Experiments:
Type in all cases: in vivo, rat
[1] = system: rats under propofol anesthesia; experiment: Measurement 1 of inhibiting effect of decrease in body temperature (rectal temperature, propofol anesthesia); conditions: for variation of body temperature in 3 hours after administering the anesthesia solution to that before administration: average; for inhibiting effect of decrease in body temperature (core temperature), in words: summary of Table 2
Description: A catheter was inserted into an external jugular vein of each of rats used in the evaluation in advance and a tip of the catheter was […] from their backs and locked with heparin. […] Then, 42 mL/kg thereof were continuously administered for 1 hour simultaneously with the start of administration of the anesthesia agent. Numbers of each group were set to 4 to 6. As for the administration of the anesthesia agent, 15 mg/kg thereof was intravenously administered through the catheter with bolus method at the beginning. […] As for the measurement of the body temperature, a former value was measured with a rectal thermometer before administering amino acid solutions, and values were measured at 30-minute intervals from the start of administration of the anesthesia agent until 3 hours after the end thereof. The measurement results were calculated as variations (value before administration-value after administration) of values in 3 hours after administering the anesthesia solution to those before administration and represented with average ± standard deviation. As for a statistical test, comparison between two groups with the normal saline solution was conducted using student t-test.

[2] = system: rats under propofol anesthesia; experiment: Measurement 2 of inhibiting effect of decrease in body temperature: timing of valine administration (Groups A to D)
Description: Examination was conducted on whether differences of the inhibiting effect of decrease in body temperature of valine were shown depending on difference of timings of administration (following A to D). A catheter was inserted into an outward jugular vein of each of rats (7 to 8 weeks age) used in the evaluation in advance and a tip of the catheter was exserted from their backs and locked with heparin. The rats were recovered for a few days in the status quo. Valine was administered through the catheter with the following four methods:
A: for 2 hours before the start of administration of propofol
B: for 1 hour before the start of administration of propofol+1 hour after the start of administration of propofol
C: for 2 hours simultaneously with the start of administration of propofol
D: for 2 hours starting from 1 hour after the start of administration of propofol. 105 mg/kg of valine containing 10.5 mL/kg of 1% valine solution was administered to Group A eight times at 15-minute intervals. 105 mg/kg of valine containing 10.5 mL/kg of 1% valine solution was administered to Group B four times at 15-minute intervals and then continuously administered for 1 hour in 420 mg/kg/hr containing 42 mL/kg of 1% valine solution. Valine was continuously administered to Groups C and D for 2 hours in 420 mg/kg/hr containing 42 mL/kg of 1% valine solution. Each group (n=8 to 9) was administered the same total dose of valine. 15 mg/kg of a propofol anesthesia agent was administered through the catheter at the beginning and, after induction of anesthesia, it was continuously administered for 3 hours in 33.75 mg/kg/hr.

[3] = system: rats with surgical invasion under propofol anesthesia; experiment: Effect on recovery from operative invasion (abdominal surgery under propofol anesthesia; body temperature and survival)
Description: A catheter was inserted into an external jugular vein of each of rats (7 weeks age) used in the evaluation in advance and a tip of the catheter was exserted from their backs and locked with heparin. The rats were recovered for a few days in the status quo. 105 mg/kg of valine (5.25 mL/kg of 2 W/V % of valine solution) was administered through the catheter to a valine-administered group four times at 15-minute intervals from 60 minutes before the start of administration of a propofol anesthesia agent. Then, valine was continuously administered for 5 hours in 420 mg/kg/hr (21 mL/kg of 2 W/V % valine solution) simultaneously with the start of administration of the propofol anesthesia agent. A normal saline solution was administered instead of a valine solution to an objective group. As for the administration of the propofol anesthesia agent, 15 mg/kg thereof was intravenously administered through the catheter with bolus method at the beginning. Soon after that, the agent was started to be continuously administered in 45 mg/kg/hr. 1 hour later, the administration speed was changed to 33.75 mg/kg/hr and continuous administration was conducted for 5 hours. Numbers of each group were set to 8. As for surgical invasion, abdominals of the rats were opened after the bolus anesthesia, their appendixes were exteriorized from their abdominal cavities and exposed in the air for 30 minutes. Then, their appendixes were put back to their abdominal cavities and sutured. As for the measurement of the body temperatures, a former value was measured with a rectal thermometer before administering the amino acids, and the value was measured again in 3 hours after the administration of propofol. The results were shown as the decreased temperature to Pre value. Survival rates were calculated from number of survivors in 24 hours from the start of the experiment.

[4] = system: peripheral mononuclear blood cells (PBMC) TNF-α production; experiment: Effect on production of peripheral mononuclear blood cell TNF-α (PBMC taken after anesthesia and celiotomy, LPS stimulation, ELISA); conditions: PBMC incubated with 1 μg/mL LPS for 24 hours; valine 4 x 105 mg/kg then 420 mg/kg/hr for 1 hour; n=6
Description: (§1) The examination was practiced with three groups of a normal group, a valine-administered group and an objective group. A catheter was inserted into an external jugular vein of each of rats (7 to 8 weeks age) used in the evaluation in advance and a tip of the catheter was exserted from their backs and locked with heparin. The rats were recovered for a few days in the status quo. 105 mg/kg of valine (5.25 mL/kg of 2 W/V % of valine solution) was administered through the inserted catheter to the valine-administered group (n=6) four times at 15-minute intervals from 60 minutes before the start of administration of a propofol anesthesia agent. Then, valine was continuously administered for 1 hour in 420 mg/kg/hr (21 mL/kg of 2 W/V % valine solution) simultaneously with the start of administration of the propofol anesthesia agent. A normal saline solution was administered instead of valine to the objective group (n=6). 15 mg/kg of the propofol anesthesia agent was introduced to be administered through the catheter at the beginning, and continuously administered for 3 hours in 33.75 mg/kg/hr. The celiotomy invasion was conducted by opening the abodominals of the rats simultaneously with the administration of the anesthesia, exteriorizing their appendixes from the abdominal cavities, putting them back again at once and suturing the abdominals. The catheter was not inserted to the normal group. […]

[5] = system: rats with celiotomy invasion under propofol anesthesia; experiment: Body temperature at the end of anesthesia in the celiotomy invasion experiment; conditions: valine-administered group, n=6
Description: as §1

[6] = 0.1% solution i.v. (4 x 10.5 mL/kg before, 42 mL/kg during 1 h of propofol)
[7] = 1% solution i.v. (4 x 10.5 mL/kg before, 42 mL/kg during 1 h of propofol)
[8] = Group A: valine for 2 hours before the start of propofol
[9] = Group B: valine for 1 hour before + 1 hour after the start of propofol
[10] = Group C: valine for 2 hours simultaneously with the start of propofol
[11] = Group D: valine for 2 hours starting 1 hour after the start of propofol

Row | Compound | variation of body temperature in 3 hours after administering the anesthesia solution to that before administration [1, 6] [°C] | variation of body temperature in 3 hours after administering the anesthesia solution to that before administration [1, 7] [°C] | inhibiting effect of decrease in body temperature (core temperature), in words [1] | decrease in body temperature from the time before administration until the end of the anesthesia [2, 8] [°C] | increase in body temperature from the end of administration of the anesthesia until 1 hour after [2, 8] [°C] | decrease in body temperature from the time before administration until the end of the anesthesia [2, 9] [°C] | increase in body temperature from the end of administration of the anesthesia until 1 hour after [2, 9] [°C] | decrease in body temperature from the time before administration until the end of the anesthesia [2, 10] [°C] | increase in body temperature from the end of administration of the anesthesia until 1 hour after [2, 10] [°C] | decrease in body temperature from the time before administration until the end of the anesthesia [2, 11] [°C] | increase in body temperature from the end of administration of the anesthesia until 1 hour after [2, 11] [°C] | inhibiting effect of decrease in body temperature, in words [2, 11] | inhibition of the decrease in body temperature versus the objective (saline) group ([3]; 3 hours after administration of propofol) [°C] | decrease in body temperature to Pre value ([3]; 3 hours after administration of propofol, valine 4 x 105 mg/kg then 420 mg/kg/hr for 5 hours, n=8) [°C] | survival rate after one day ([3]; 24 hours from the start of the experiment, n=8) [%] | production quantity of TNF-α [4] [pg/1×10^6 cells] | body temperature at the end of the administration of the anesthesia [5] [°C]
1 | N[C@@H](CC(=O)O)C(=O)O [Asparatic Acid, asparatic acid] | −6.4 | −4.5 | inhibiting effect of decrease in body temperature (core temperature) was shown |  |  |  |  |  |  |  |  |  |  |  |  |  | 
2 | N[C@@H](CS)C(=O)O [Cystein, cystein] | −6.3 | −4.8 | inhibiting effect of decrease in body temperature (core temperature) was shown |  |  |  |  |  |  |  |  |  |  |  |  |  | 
3 | NCC(=O)O [Glycine, glycine] | −6.4 | −6.1 | inhibiting effect of decrease in body temperature (core temperature) was shown |  |  |  |  |  |  |  |  |  |  |  |  |  | 
4 | CC(C)[C@H](N)C(=O)O [Valine, valine] | −4.8 | −4.0 | inhibiting effect of decrease in body temperature (core temperature) was shown | 6.1±1.9 | 1.1±0.5 | 4.3±1.2 | 2.0±1.2 | 6.1±1.4 | 2.0±0.9 | 6.9±1.0 | 1.0±0.6 | inhibiting effect of decrease in body temperature was not shown | 1.19 | 7.83±0.87 | 87.5 | 1389.8±415.8 | 31.2±0.8
